{"source": "paper PMC5306265", "about": "(Investigational New Drugs, 2016)", "key": {"[1]": {"experiment": "Plasma pharmacokinetics in patients (LC-MS/MS, noncompartmental analysis)", "format": "in vivo, human", "details": "for half-life / AUC / Cmax / Tmax: human, plasma; for AUC / Cmax / Tmax: po; for AUC: read-out: AUC(0-τ) Geometric mean (%CV); for Cmax: read-out: Cmax Geometric mean (%CV)", "excerpt": "(§1) Quality controls, analyzed in duplicate over the validation range, and inter-assay precision, evaluated at each level in duplicate in six runs, met the performance and acceptance criteria. Noncompartmental analyses, using WinNonlin version 6.1 or higher (Pharsight, Cary, NC), in pharmacokinetic-evaluable patients were used to determine plasma and urine pharmacokinetic parameters including: Cmax, maximum plasma concentration; Tmax, time to Cmax; AUC0–τ, area under the plasma concentration–time curve over the dosing interval; CL/F, apparent clearance; t½, terminal elimination half-life; accumulation ratio; peak/trough ratio; and renal clearance."}, "[2]": {"experiment": "Urine pharmacokinetics in patients (renal clearance)", "format": "in vivo", "details": "human, oral, 16 patients, 0.2–22 mg dose range, day 21 of cycle 1", "excerpt": "as §1"}, "[3]": {"tested_on": "BRAF V600E-mutant cutaneous melanoma cell lines", "details": "high proportion of BRAF V600E-mutant cutaneous melanoma cell lines; read-out: IC50 (high sensitivity); cited from earlier work"}}, "note": "Read-outs that look alike come from different tables or passages of the source."}
{"smiles": "Cn1c(=O)c(F)c(Nc2ccc(I)cc2F)c2c(=O)n(C[C@@H](O)CO)cnc21", "note": "[TAK-733]", "values": [{"measurement": "CLss/F Geometric mean (%CV)", "setting": "[1]; 3.2 mg oral, day 21", "result": "3.0 (102) L/h"}, {"measurement": "Rac Mean (SD)", "setting": "[1]; 3.2 mg oral, day 21", "result": "7.2 (1.5)"}, {"measurement": "CLss/F Geometric mean (%CV)", "setting": "[1]; 4.4 mg oral, day 21", "result": "13.8 (29) L/h"}, {"measurement": "CLss/F Geometric mean (%CV)", "setting": "[1]; 6 mg oral, day 21", "result": "6.5 (18) L/h"}, {"measurement": "Rac Mean (SD)", "setting": "[1]; 6 mg oral, day 21", "result": "2.8 (1.2)"}, {"measurement": "CLss/F Geometric mean (%CV)", "setting": "[1]; 8.4 mg oral, day 21", "result": "10.7 (17) L/h"}, {"measurement": "Rac Mean (SD)", "setting": "[1]; 8.4 mg oral, day 21", "result": "2.5 (1.0)"}, {"measurement": "CLss/F Geometric mean (%CV)", "setting": "[1]; 16 mg oral, day 21", "result": "7.4 (28) L/h"}, {"measurement": "Rac Mean (SD)", "setting": "[1]; 16 mg oral, day 21", "result": "4.4 (2.6)"}, {"measurement": "CLss/F Geometric mean (%CV)", "setting": "[1]; 22 mg oral, day 21", "result": "15.7 (36) L/h"}, {"measurement": "Rac Mean (SD)", "setting": "[1]; 22 mg oral, day 21", "result": "1.8 (1.2)"}, {"measurement": "half-life", "setting": "[1]; oral, 11.8–22 mg dose range, read-out: Terminal half-life following multiple dosing", "result": "29 to 50", "unit": "h"}, {"measurement": "AUC", "setting": "[1]; 3.2 mg, 3.2 mg oral, day 1", "result": 129, "unit": "ng·h/mL"}, {"measurement": "Cmax", "setting": "[1]; 3.2 mg, 3.2 mg oral, day 1", "result": 14.8, "unit": "ng/mL"}, {"measurement": "Tmax", "setting": "[1]; 3.2 mg, 3.2 mg oral, day 1, read-out: Tmax Median (range)", "result": 1.55, "unit": "h"}, {"measurement": "AUC", "setting": "[1]; 3.2 mg, 3.2 mg oral, day 21", "result": 1050, "unit": "ng·h/mL"}, {"measurement": "Cmax", "setting": "[1]; 3.2 mg, 3.2 mg oral, day 21", "result": 63, "unit": "ng/mL"}, {"measurement": "Tmax", "setting": "[1]; 3.2 mg, 3.2 mg oral, day 21, read-out: Tmax Median (range)", "result": 3, "unit": "h"}, {"measurement": "AUC", "setting": "[1]; 4.4 mg, 4.4 mg oral, day 1", "result": 98.1, "unit": "ng·h/mL"}, {"measurement": "Cmax", "setting": "[1]; 4.4 mg, 4.4 mg oral, day 1", "result": 11, "unit": "ng/mL"}, {"measurement": "Tmax", "setting": "[1]; 4.4 mg, 4.4 mg oral, day 1, read-out: Tmax Median (range)", "result": 3.5, "unit": "h"}, {"measurement": "AUC", "setting": "[1]; 4.4 mg, 4.4 mg oral, day 21", "result": 318, "unit": "ng·h/mL"}, {"measurement": "Cmax", "setting": "[1]; 4.4 mg, 4.4 mg oral, day 21", "result": 24.8, "unit": "ng/mL"}, {"measurement": "Tmax", "setting": "[1]; 4.4 mg, 4.4 mg oral, day 21, read-out: Tmax Median (range)", "result": 1.95, "unit": "h"}, {"measurement": "AUC", "setting": "[1]; 6 mg, 6 mg oral, day 1", "result": 331, "unit": "ng·h/mL"}, {"measurement": "Cmax", "setting": "[1]; 6 mg, 6 mg oral, day 1", "result": 26.2, "unit": "ng/mL"}, {"measurement": "Tmax", "setting": "[1]; 6 mg, 6 mg oral, day 1, read-out: Tmax Median (range)", "result": 4.5, "unit": "h"}, {"measurement": "AUC", "setting": "[1]; 6 mg, 6 mg oral, day 21", "result": 925, "unit": "ng·h/mL"}, {"measurement": "Cmax", "setting": "[1]; 6 mg, 6 mg oral, day 21", "result": 59.7, "unit": "ng/mL"}, {"measurement": "Tmax", "setting": "[1]; 6 mg, 6 mg oral, day 21, read-out: Tmax Median (range)", "result": 3, "unit": "h"}, {"measurement": "AUC", "setting": "[1]; 8.4 mg, 8.4 mg oral, day 1", "result": 360, "unit": "ng·h/mL"}, {"measurement": "Cmax", "setting": "[1]; 8.4 mg, 8.4 mg oral, day 1", "result": 28.4, "unit": "ng/mL"}, {"measurement": "Tmax", "setting": "[1]; 8.4 mg, 8.4 mg oral, day 1, read-out: Tmax Median (range)", "result": 3, "unit": "h"}, {"measurement": "AUC", "setting": "[1]; 8.4 mg, 8.4 mg oral, day 21", "result": 786, "unit": "ng·h/mL"}, {"measurement": "Cmax", "setting": "[1]; 8.4 mg, 8.4 mg oral, day 21", "result": 57.4, "unit": "ng/mL"}, {"measurement": "Tmax", "setting": "[1]; 8.4 mg, 8.4 mg oral, day 21, read-out: Tmax Median (range)", "result": 3, "unit": "h"}, {"measurement": "AUC", "setting": "[1]; 11.8 mg, 11.8 mg oral, day 1", "result": 299, "unit": "ng·h/mL"}, {"measurement": "Cmax", "setting": "[1]; 11.8 mg, 11.8 mg oral, day 1", "result": 23, "unit": "ng/mL"}, {"measurement": "Tmax", "setting": "[1]; 11.8 mg, 11.8 mg oral, day 1, read-out: Tmax Median (range)", "result": 3.05, "unit": "h"}, {"measurement": "Cmax", "setting": "[1]; 11.8 mg, 11.8 mg oral, day 21", "result": 53.2, "unit": "ng/mL"}, {"measurement": "Tmax", "setting": "[1]; 11.8 mg, 11.8 mg oral, day 21, read-out: Tmax Median (range)", "result": 4, "unit": "h"}, {"measurement": "AUC", "setting": "[1]; 16 mg, 16 mg oral, day 1", "result": 640, "unit": "ng·h/mL"}, {"measurement": "Cmax", "setting": "[1]; 16 mg, 16 mg oral, day 1", "result": 55.7, "unit": "ng/mL"}, {"measurement": "Tmax", "setting": "[1]; 16 mg, 16 mg oral, day 1, read-out: Tmax Median (range)", "result": 2.1, "unit": "h"}, {"measurement": "AUC", "setting": "[1]; 16 mg, 16 mg oral, day 21", "result": 2150, "unit": "ng·h/mL"}, {"measurement": "Cmax", "setting": "[1]; 16 mg, 16 mg oral, day 21", "result": 151, "unit": "ng/mL"}, {"measurement": "Tmax", "setting": "[1]; 16 mg, 16 mg oral, day 21, read-out: Tmax Median (range)", "result": 3.4, "unit": "h"}, {"measurement": "AUC", "setting": "[1]; 22 mg, 22 mg oral, day 1", "result": 766, "unit": "ng·h/mL"}, {"measurement": "Cmax", "setting": "[1]; 22 mg, 22 mg oral, day 1", "result": 60, "unit": "ng/mL"}, {"measurement": "Tmax", "setting": "[1]; 22 mg, 22 mg oral, day 1, read-out: Tmax Median (range)", "result": 3, "unit": "h"}, {"measurement": "AUC", "setting": "[1]; 22 mg, 22 mg oral, day 21", "result": 1390, "unit": "ng·h/mL"}, {"measurement": "Cmax", "setting": "[1]; 22 mg, 22 mg oral, day 21", "result": 105, "unit": "ng/mL"}, {"measurement": "Tmax", "setting": "[1]; 22 mg, 22 mg oral, day 21, read-out: Tmax Median (range)", "result": 1.05, "unit": "h"}, {"measurement": "Tmax", "setting": "[1]; 0.2–22 mg, overall, read-out: Tmax range", "result": "0.5 to 8.1", "unit": "h"}, {"measurement": "Tmax", "setting": "[1]; 0.2–22 mg, read-out: overall median Tmax", "result": 3, "unit": "h"}, {"measurement": "half-life", "setting": "[1]; 11.8 mg oral, day 21, read-out: Terminal t½ Mean (SD) (converted)", "result": 43, "unit": "h"}, {"measurement": "half-life", "setting": "[1]; 16 mg oral, day 21, read-out: Terminal t½ Mean (SD) (converted)", "result": 39.9, "unit": "h"}, {"measurement": "half-life", "setting": "[1]; 22 mg oral, day 21, read-out: Terminal t½ Mean (SD) (converted)", "result": 38.3, "unit": "h"}, {"measurement": "CL renal", "setting": "[2]", "result": "0.833 to 8.17", "unit": "mL/min"}, {"measurement": "IC50", "setting": "[3]", "result": "< 100", "unit": "nM"}]}
